Test results published in patent publication US12448369B2 (Edgewise Therapeutics, Inc., priority 2023, dated 2025).

Tests used:
[1] = biological target: T1, Porcine ventricle myofibrils (ventricular myosin ATPase) (Sus scrofa, UniProt P79293); assay: Myofibril ATPase assay, porcine ventricle myofibrils; format: biochemical, porcine (Yucatan minipigs); conditions: porcine ventricle myofibrils
T1 construct: Myofibrils from porcine cardiac muscle was isolated from the left ventricle of Yucatan minipigs; tissue Exemplar Genetics; host or cells: left ventricle of Yucatan minipigs, myofibrils prepared in house
T1 sequence (P79293 whole entry): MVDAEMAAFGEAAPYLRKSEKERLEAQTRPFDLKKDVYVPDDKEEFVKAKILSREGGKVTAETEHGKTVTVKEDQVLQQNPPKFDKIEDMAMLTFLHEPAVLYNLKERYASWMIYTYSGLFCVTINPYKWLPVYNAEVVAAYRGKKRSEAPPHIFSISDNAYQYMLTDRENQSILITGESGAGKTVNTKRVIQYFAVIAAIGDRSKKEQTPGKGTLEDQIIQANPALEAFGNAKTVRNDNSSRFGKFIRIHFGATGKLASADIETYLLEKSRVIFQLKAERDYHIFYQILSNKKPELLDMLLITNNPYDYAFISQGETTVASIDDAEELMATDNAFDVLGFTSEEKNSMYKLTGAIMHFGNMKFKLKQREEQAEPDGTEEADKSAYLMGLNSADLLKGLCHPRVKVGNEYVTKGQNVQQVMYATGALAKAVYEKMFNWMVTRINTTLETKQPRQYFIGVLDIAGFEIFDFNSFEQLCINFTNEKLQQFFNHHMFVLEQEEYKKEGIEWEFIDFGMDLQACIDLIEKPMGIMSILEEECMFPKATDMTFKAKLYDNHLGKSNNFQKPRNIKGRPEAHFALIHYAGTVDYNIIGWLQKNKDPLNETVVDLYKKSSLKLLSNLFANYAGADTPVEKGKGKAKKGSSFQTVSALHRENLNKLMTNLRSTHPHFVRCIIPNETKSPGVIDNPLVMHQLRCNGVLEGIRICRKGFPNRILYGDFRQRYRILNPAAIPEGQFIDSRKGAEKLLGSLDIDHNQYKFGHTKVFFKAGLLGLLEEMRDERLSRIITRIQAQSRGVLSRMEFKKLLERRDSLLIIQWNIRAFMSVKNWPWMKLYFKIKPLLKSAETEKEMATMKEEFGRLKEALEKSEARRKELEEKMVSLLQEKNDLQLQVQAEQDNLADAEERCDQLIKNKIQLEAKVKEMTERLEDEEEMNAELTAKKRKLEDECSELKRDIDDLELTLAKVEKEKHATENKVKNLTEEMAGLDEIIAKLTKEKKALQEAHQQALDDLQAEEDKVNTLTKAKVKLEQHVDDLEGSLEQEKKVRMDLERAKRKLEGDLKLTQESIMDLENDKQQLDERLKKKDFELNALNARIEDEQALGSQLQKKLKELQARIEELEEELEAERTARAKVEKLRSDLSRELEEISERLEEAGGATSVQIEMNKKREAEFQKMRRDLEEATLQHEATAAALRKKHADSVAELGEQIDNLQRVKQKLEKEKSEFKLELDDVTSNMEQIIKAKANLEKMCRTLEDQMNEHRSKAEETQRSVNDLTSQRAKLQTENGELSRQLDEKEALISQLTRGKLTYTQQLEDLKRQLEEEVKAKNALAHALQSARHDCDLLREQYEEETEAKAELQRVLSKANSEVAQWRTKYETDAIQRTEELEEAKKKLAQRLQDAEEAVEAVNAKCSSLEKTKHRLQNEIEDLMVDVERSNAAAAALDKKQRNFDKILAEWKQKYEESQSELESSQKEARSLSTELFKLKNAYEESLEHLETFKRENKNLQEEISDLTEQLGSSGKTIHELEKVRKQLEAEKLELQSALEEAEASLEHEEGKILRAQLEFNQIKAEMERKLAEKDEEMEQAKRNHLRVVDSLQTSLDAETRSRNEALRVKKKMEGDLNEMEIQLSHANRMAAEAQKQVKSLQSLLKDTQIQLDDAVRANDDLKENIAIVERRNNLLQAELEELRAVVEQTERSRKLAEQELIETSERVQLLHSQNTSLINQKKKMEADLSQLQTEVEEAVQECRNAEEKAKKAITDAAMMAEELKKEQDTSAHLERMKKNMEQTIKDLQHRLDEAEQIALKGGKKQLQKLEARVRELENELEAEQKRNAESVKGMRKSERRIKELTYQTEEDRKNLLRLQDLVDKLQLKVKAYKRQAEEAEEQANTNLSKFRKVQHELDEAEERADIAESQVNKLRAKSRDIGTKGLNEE
Procedure, shortened: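 Test compounds acted on myofibrils isolated from the left ventricle of Yucatan minipigs. ADP formation was coupled via pyruvate kinase/lactate dehydrogenase to NADH oxidation, monitored kinetically at 340 nm over 75 min. Rates relative to vehicle were fitted with a 4-parameter logistic model, reported as Y75 (25% inhibition) or Y125 (activation) concentrations.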

[2] = test system: Porcine atria myofibrils (atrial myosin ATPase); assay: Myofibril ATPase assay, porcine atria myofibrils; format: biochemical; conditions: porcine atria myofibrils
Procedure, shortened: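 Porcine atrial myofibrils were tested in a PK/LDH-coupled system where ADP from myosin ATPase drives NADH oxidation. Absorbance at 340 nm was read every 1.5-2 min for 75 min and slopes were normalized to vehicle wells. A 4-parameter logistic fit gave Y75 (25% inhibition) or Y125 (activation) concentrations.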

[3] = test system: Rabbit Psoas myofibrils (skeletal myosin ATPase); assay: Myofibril ATPase assay, rabbit psoas (skeletal) myofibrils; format: biochemical; conditions: rabbit psoas myofibrils
Procedure, shortened: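 ATPase activity of Triton-washed myofibrils was measured by PK/LDH coupling, following NADH loss at 340 nm every 1.5–2 min for 75 min in PIPES/Ca/EGTA buffer at pH 7.0. Slopes, normalized to vehicle (100%), were fitted to a 4-parameter logistic model. Values are Y75 (25% inhibition) or Y125 (activators).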

[4] = Y75 value (75% activity relative to no compound)

| Ventricular EC25 ([1]; Y75 value (no ‡ mark)) | Atrial EC25 ([2]; Y75 value (no ‡ mark)) | Skeletal EC25 ([3]; Y75 value (no ‡ mark)) | Ventricular EC25 ([1]; Y75 value) | Atrial EC25 [2, 4] | Skeletal EC25 ([3]; Y75 value) | Structure (SMILES) |
| --- | --- | --- | --- | --- | --- | --- |
| 1610 nM | 100 nM | 40 nM |  |  |  | CC(C(=O)N[C@@H](C)c1ccc(F)cc1F)c1c(C(F)(F)F)c2cc(F)ccc2[nH]c1=O (stereo partly drawn) [compound 113] |
| 4540 nM | 3860 nM | 60 nM |  |  |  | C[C@H](NC(=O)Cc1c(C2CC2)c2cc(F)ccc2[nH]c1=O)c1ccc(F)cc1F [compound 114] |
| 320 nM | 50 nM | 20 nM |  |  |  | C[C@H](NC(=O)Cc1c(C(F)(F)F)c2cc(F)ccc2[nH]c1=O)c1ccc(F)cc1F [compound 115] |
| 130 nM | 40 nM | 20 nM |  |  |  | Cc1c(CC(=O)N[C@@H](C)c2ccc(F)cc2F)c(=O)[nH]c2ccc(F)c(F)c12 [compound 116] |
| 100000 nM | 100000 nM | 6320 nM |  |  |  | C[C@H](NC(=O)Cc1cc2cc(C3CC3)ccc2[nH]c1=O)c1ccc(F)cc1F [compound 117] |
| 300 nM | 60 nM | 30 nM |  |  |  | C[C@H](NC(=O)Cc1cc2c(F)c(F)ccc2[nH]c1=O)c1ccc(F)cc1F [compound 118] |
| 1960 nM | 260 nM | 110 nM |  |  |  | C[C@H](NC(=O)C(F)(F)c1cc2cc(F)ccc2[nH]c1=O)c1ccc(F)cc1F [compound 119] |
| 250 nM | 40 nM | 50 nM |  |  |  | Cc1c(CC(=O)N[C@@H](C)c2ccc(F)cc2F)c(=O)[nH]c2ccc(Br)cc12 [compound 120] |
| 100000 nM | 100000 nM | 3750 nM |  |  |  | C[C@H](NC(=O)Cc1cc2cc(C#N)ccc2[nH]c1=O)c1ccc(F)cc1F [compound 121] |
| 100000 nM | 100000 nM | 42440 nM |  |  |  | COc1ccc2[nH]c(=O)c(CC(=O)N[C@@H](C)c3ccc(F)cc3F)cc2c1 [compound 124] |
| 20890 nM | 64800 nM | 25670 nM |  |  |  | C[C@H](NC(=O)Cc1cc2cc(O)ccc2[nH]c1=O)c1ccc(F)cc1F [compound 125] |
| 490 nM | 60 nM | 30 nM |  |  |  | CCc1c(CC(=O)N[C@@H](C)c2ccc(F)cc2F)c(=O)[nH]c2ccccc12 [compound 126] |
| 3120 nM | 190 nM | 170 nM |  |  |  | Cc1c(C(C)C(=O)N[C@@H](C)c2ccc(F)cc2F)c(=O)[nH]c2ccc(F)cc12 (stereo partly drawn) [compound 127] |
| 9830 nM | 900 nM | 170 nM |  |  |  | CNc1c(CC(=O)N[C@@H](C)c2ccc(F)cc2F)c(=O)[nH]c2ccccc12 [compound 128] |
| 750 nM | 210 nM | 40 nM |  |  |  | C[C@H](NC(=O)Cc1c(C(F)(F)F)c2ccccc2[nH]c1=O)c1ccc(F)cc1F [compound 129] |
| 150 nM | 20 nM | 30 nM |  |  |  | Cc1c(CC(=O)N[C@@H](C)c2ccc(F)cc2F)c(=O)[nH]c2cccc(F)c12 [compound 130] |
| 810 nM | 70 nM | 20 nM |  |  |  | C[C@H](NC(=O)Cc1cc2c(F)cccc2[nH]c1=O)c1ccc(F)cc1F [compound 131] |
| 100000 nM | 100000 nM | 7990 nM |  |  |  | CC(C(=O)N[C@@H](C)c1ccc(F)cc1F)c1cc2ccccc2[nH]c1=O (stereo partly drawn) [compound 134] |
| 400 nM | 100 nM | 30 nM |  |  |  | Cc1c(CC(=O)N[C@@H](C)c2ccc(F)cc2F)c(=O)[nH]c2ccccc12 [compound 135] |
| 3330 nM | 1120 nM | 190 nM |  |  |  | C[C@H](NC(=O)Cc1cc2ccccc2[nH]c1=O)c1ccc(F)cc1F [compound 137] |
|  |  |  | 100000 nM | 100000 nM | 42180 nM | C[C@@H](NC(=O)Cc1c(C2CC2)c2cnccc2[nH]c1=O)c1ccc(C#N)cn1 [compound 140] |
|  |  |  | 100000 nM | 100000 nM | 8740 nM | C[C@H](NC(=O)Cc1c(C2CC2)c2cnccc2[nH]c1=O)c1ccc(C#N)cn1 [compound 141] |

| Ventricular EC25 ([1]; Y75 value (no ‡ mark)) | Atrial EC25 ([2]; Y75 value (no ‡ mark)) | Skeletal EC25 ([3]; Y75 value (no ‡ mark)) | Ventricular EC25 ([1]; Y75 value) | Atrial EC25 [2, 4] | Skeletal EC25 ([3]; Y75 value) | Structure (SMILES) |
| --- | --- | --- | --- | --- | --- | --- |
|  |  |  | 100000 nM | 100000 nM | 100000 nM | C[C@@H](NC(=O)Cc1c(C2CC2)c2cnccc2[nH]c1=O)c1ncc(C#N)cc1F [compound 142] |
|  |  |  | 6560 nM | 960 nM | 610 nM | C[C@H](NC(=O)Cc1c(C2CC2)c2cnccc2[nH]c1=O)c1ncc(C#N)cc1F [compound 143] |
|  |  |  | 120 nM | 20 nM | 60 nM | Cc1c(CC(=O)N[C@@H](C)c2ncc(C#N)cc2F)c(=O)[nH]c2ccc(C(F)(F)F)nc12 [compound 147] |
|  |  |  | 3020 nM | 1990 nM | 2550 nM | Cc1nccc2[nH]c(=O)c(CC(=O)N[C@H](C)c3ccc(C#N)cc3F)c(F)c12 [compound 148] |
|  |  |  | 100 nM | 60 nM | 20 nM | Cc1nccc2[nH]c(=O)c(CC(=O)N[C@@H](C)c3ccc(C#N)cc3F)c(F)c12 [compound 149] |
|  |  |  | 680 nM | 60 nM | 90 nM | Cc1nccc2[nH]c(=O)c(CC(=O)N[C@@H](C)c3ccc(F)cc3F)c(F)c12 [compound 150] |
|  |  |  | 870 nM | 440 nM | 110 nM | Cc1nccc2[nH]c(=O)c(CC(=O)N[C@H](C)c3ccc(C#N)cc3F)c(Cl)c12 [compound 151] |
|  |  |  | 90 nM | 50 nM | 10 nM | Cc1nccc2[nH]c(=O)c(CC(=O)N[C@@H](C)c3ccc(C#N)cc3F)c(Cl)c12 [compound 152] |
|  |  |  | 100000 nM | 19400 nM | 3090 nM | Cc1nccc2[nH]c(=O)c(CC(=O)N[C@H](C)c3ccc(C#N)cc3F)c(C#N)c12 [compound 153] |
|  |  |  | 540 nM | 180 nM | 40 nM | Cc1nccc2[nH]c(=O)c(CC(=O)N[C@@H](C)c3ccc(C#N)cc3F)c(C#N)c12 [compound 154] |
|  |  |  | 62810 nM | 6060 nM | 1240 nM | Cc1c(CC(=O)N[C@H](C)c2ccc(C#N)cn2)c(=O)[nH]c2ccnc(C(F)(F)F)c12 [compound 155] |
|  |  |  | 3120 nM | 330 nM | 210 nM | Cc1c(CC(=O)N[C@@H](C)c2ccc(C#N)cn2)c(=O)[nH]c2ccnc(C(F)(F)F)c12 [compound 156] |
|  |  |  | 26290 nM | 13100 nM | 620 nM | Cc1c(CC(=O)N[C@H](C)c2ccc(C#N)cn2)c(=O)[nH]c2ccnc(C#N)c12 [compound 157] |
|  |  |  | 1800 nM | 430 nM | 60 nM | Cc1c(CC(=O)N[C@@H](C)c2ccc(C#N)cn2)c(=O)[nH]c2ccnc(C#N)c12 [compound 158] |
|  |  |  | 6350 nM | 1170 nM | 110 nM | Cc1nccc2[nH]c(=O)c(CC(=O)N[C@@H](C)c3ccc(F)cc3F)c(C#N)c12 [compound 159] |
|  |  |  | 2230 nM | 130 nM | 30 nM | COC[C@H](NC(=O)Cc1c(C)c2c(C#N)nccc2[nH]c1=O)c1ncc(F)cc1F [compound 160] |
|  |  |  | 1190 nM | 340 nM | 110 nM | Cc1c(CC(=O)N[C@H](C)c2ccc(C#N)cc2F)c(=O)[nH]c2ccnc(C(F)(F)F)c12 [compound 161] |
|  |  |  | 110 nM | 130 nM | 20 nM | Cc1c(CC(=O)N[C@@H](C)c2ccc(C#N)cc2F)c(=O)[nH]c2ccnc(C(F)(F)F)c12 [compound 162] |
|  |  |  | 100000 nM | 940 nM | 12340 nM | Cc1c(CC(=O)N[C@H](CO)c2ncc(C#N)cc2F)c(=O)[nH]c2cnnc(C#N)c12 [compound 163] |
|  |  |  | 22060 nM | 2510 nM | 1120 nM | Cc1c(CC(=O)N[C@@H](CO)c2ncc(C#N)cc2F)c(=O)[nH]c2cnnc(C#N)c12 [compound 164] |
|  |  |  | 100000 nM | 2770 nM | 47800 nM | Cc1c(CC(=O)N[C@H](C)c2ncc(C#N)cc2F)c(=O)[nH]c2ccc(O)nc12 [compound 165] |
